Patent US20040006070A1, “Intraspinal continuous infusion of midazolam hydrochloride for the treatment of pain” (priority 2002, published 2004)
Where a name gives a salt, the structure may show the parent alone.

Assay: Bloodwork: complete blood count, electrolytes, extended blood chemistry
Type: in vivo, sheep
Procedure: Indirect blood pressure, pulse recording, pain testing (mechanical stimulus device, cold and warm water baths see description in procedure) and weight were taken on days 1, 3, 7, 15, 22, 29, 36, and 43. Venous blood samples (15 ml drawn from the jugular vein with Vacutainer brand blood collection tubes) for complete blood count, electrolytes, and extended blood chemistry were drawn on days 1, 15, and 43 (mild procedure only light hand restraint necessary).

[1] = sheep #84 Roadrunner, 15 mg/day, Day 1
[2] = sheep #84 Roadrunner, 15 mg/day, Day 15
[3] = sheep #84 Roadrunner, 15 mg/day, Day 43

Cc1ncc2n1-c1ccc(Cl)cc1C(c1ccccc1F)=NC2 [Midazolam, midazolam hydrochloride]
Total Bili [1]: 0.3 mg/dL | Total Prot [1]: 5.9 g/dL | WBC [1]: 5390 µL⁻¹ | ALT [2]: 2 U/L | AST [2]: 60 U/L | Albumin [2]: 3.7 g/dL | Alk Phos [2]: 98 U/L | BUN [2]: 11 mg/dL | CPK [2]: 53 U/L | Cholesterol [2]: 56 mg/dL | Creatinine [2]: 1.3 mg/dL | Differential Count: Eosin [2]: 12% | Differential Count: Lymph [2]: 44% | Differential Count: Seg [2]: 44% | Gamma GT [2]: 62 U/L | Glucose [2]: 66 mg/dL | Hct [2]: 31.8% | Hgb [2]: 10.8 g/dL | K+ [2]: 4.8 mEq/l | MCH [2]: 10.8 pg | MCHC [2]: 34.0 g/dL | MCV [2]: 31.8 fL | Na+ [2]: 150 mEq/l | Phos [2]: 6.6 mg/dL | Platlet Count [2]: 848000 µL⁻¹ | RBC [2]: 1e+07 µL⁻¹ | Total Bili [2]: 0.1 mg/dL | Total Prot [2]: 6.4 g/dL | WBC [2]: 5130 µL⁻¹ | ALT [3]: 7 U/L | AST [3]: 65 U/L | Albumin [3]: 3.54 g/dL | Alk Phos [3]: 143 U/L | BUN [3]: 11 mg/dL | CPK [3]: 102 U/L | Cholesterol [3]: 57 mg/dL | Creatinine [3]: 1.2 mg/dL | Differential Count: Atyp lym [3]: 1% | Differential Count: Eosin [3]: 2% | Differential Count: Lymph [3]: 67% | Differential Count: Mono [3]: 1% | Differential Count: Seg [3]: 29% | Gamma GT [3]: 56 U/L | Glucose [3]: 74 mg/dL | Hct [3]: 35.0% | Hgb [3]: 11.9 g/dL | K+ [3]: 4.6 mEq/l | MCH [3]: 11.8 pg | MCHC [3]: 34.0 g/dL | MCV [3]: 34.7 fL | Na+ [3]: 149 mEq/l | Phos [3]: 7.1 mg/dL | Platlet Count [3]: 727000 µL⁻¹ | RBC [3]: 1.01e+07 µL⁻¹ | Total Bili [3]: 0.1 mg/dL | Total Prot [3]: 6.0 g/dL | WBC [3]: 5150 µL⁻¹ | ALT (sheep #85, 15 mg/day, Day 1): 7 U/L | AST (sheep #85, 15 mg/day, Day 1): 76 U/L | Alk Phos (sheep #85, 15 mg/day, Day 1): 50 U/L | BUN (sheep #85, 15 mg/day, Day 1): 10 mg/dL | CPK (sheep #85, 15 mg/day, Day 1): 99 U/L | Cholesterol (sheep #85, 15 mg/day, Day 1): 52 mg/dL | Differential Count: Baso (sheep #85, 15 mg/day, Day 1): 1% | Differential Count: Eosin (sheep #85, 15 mg/day, Day 1): 1% | Differential Count: Lymph (sheep #85, 15 mg/day, Day 1): 22% | Differential Count: Mono (sheep #85, 15 mg/day, Day 1): 1% | Differential Count: Seg (sheep #85, 15 mg/day, Day 1): 75% | Gamma GT (sheep #85, 15 mg/day, Day 1): 68 U/L | Glucose (sheep #85, 15 mg/day, Day 1): 75 mg/dL | Hct (sheep #85, 15 mg/day, Day 1): 28.0% | Hgb (sheep #85, 15 mg/day, Day 1): 9.2 g/dL | MCH (sheep #85, 15 mg/day, Day 1): 10.7 pg | MCHC (sheep #85, 15 mg/day, Day 1): 32.8 g/dL | MCV (sheep #85, 15 mg/day, Day 1): 32.7 fL | Na+ (sheep #85, 15 mg/day, Day 1): 149 mEq/l | Platlet Count (sheep #85, 15 mg/day, Day 1): 994000 µL⁻¹ | RBC (sheep #85, 15 mg/day, Day 1): 8.57e+06 µL⁻¹ | WBC (sheep #85, 15 mg/day, Day 1): 4780 µL⁻¹ | Total Bili (sheep #85, 15 mg/day, Day 1, ref 0.14-0.32): 0.1 mg/dL | Creatinine (sheep #85, 15 mg/day, Day 1, ref 1-2.7): 1.4 mg/dL | Albumin (sheep #85, 15 mg/day, Day 1, ref 2.4-3): 3.4 g/dL | K+ (sheep #85, 15 mg/day, Day 1, ref 3.9-5.4): 4.7 mEq/l | Phos (sheep #85, 15 mg/day, Day 1, ref 5-7.3): 5.3 mg/dL | Total Prot (sheep #85, 15 mg/day, Day 1, ref 6-7.9): 6.1 g/dL | ALT (sheep #85, 15 mg/day, Day 15): 10 U/L | AST (sheep #85, 15 mg/day, Day 15): 56 U/L | Alk Phos (sheep #85, 15 mg/day, Day 15): 54 U/L | BUN (sheep #85, 15 mg/day, Day 15): 17 mg/dL | CPK (sheep #85, 15 mg/day, Day 15): 56 U/L | Cholesterol (sheep #85, 15 mg/day, Day 15): 58 mg/dL | Differential Count: Eosin (sheep #85, 15 mg/day, Day 15): 12% | Differential Count: Lymph (sheep #85, 15 mg/day, Day 15): 44% | Differential Count: Seg (sheep #85, 15 mg/day, Day 15): 44% | Gamma GT (sheep #85, 15 mg/day, Day 15): 54 U/L | Hct (sheep #85, 15 mg/day, Day 15): 31.8% | Hgb (sheep #85, 15 mg/day, Day 15): 10.8 g/dL | MCH (sheep #85, 15 mg/day, Day 15): 10.8 pg | MCHC (sheep #85, 15 mg/day, Day 15): 34.0 g/dL | MCV (sheep #85, 15 mg/day, Day 15): 31.8 fL | Na+ (sheep #85, 15 mg/day, Day 15): 148 mEq/l | Platlet Count (sheep #85, 15 mg/day, Day 15): 848000 µL⁻¹ | RBC (sheep #85, 15 mg/day, Day 15): 1e+07 µL⁻¹ | WBC (sheep #85, 15 mg/day, Day 15): 5130 µL⁻¹ | Total Bili (sheep #85, 15 mg/day, Day 15, ref 0.14-0.32): 0.0 mg/dL | Creatinine (sheep #85, 15 mg/day, Day 15, ref 1-2.7): 1.2 mg/dL | Albumin (sheep #85, 15 mg/day, Day 15, ref 2.4-3): 2.8 g/dL | K+ (sheep #85, 15 mg/day, Day 15, ref 3.9-5.4): 5.0 mEq/l | Phos (sheep #85, 15 mg/day, Day 15, ref 5-7.3): 6.0 mg/dL | Total Prot (sheep #85, 15 mg/day, Day 15, ref 6-7.9): 5.4 g/dL | ALT (sheep #85, 15 mg/day, Day 43): 8 U/L | AST (sheep #85, 15 mg/day, Day 43): 59 U/L | Alk Phos (sheep #85, 15 mg/day, Day 43): 92 U/L | BUN (sheep #85, 15 mg/day, Day 43): 13 mg/dL | CPK (sheep #85, 15 mg/day, Day 43): 81 U/L | Cholesterol (sheep #85, 15 mg/day, Day 43): 72 mg/dL | Differential Count: Eosin (sheep #85, 15 mg/day, Day 43): 4% | Differential Count: Lymph (sheep #85, 15 mg/day, Day 43): 75% | Differential Count: Mono (sheep #85, 15 mg/day, Day 43): 3% | Differential Count: Seg (sheep #85, 15 mg/day, Day 43): 18% | Gamma GT (sheep #85, 15 mg/day, Day 43): 60 U/L | Glucose (sheep #85, 15 mg/day, Day 43): 76 mg/dL | Hct (sheep #85, 15 mg/day, Day 43): 34.7% | Hgb (sheep #85, 15 mg/day, Day 43): 11.9 g/dL | MCH (sheep #85, 15 mg/day, Day 43): 12.6 pg | MCHC (sheep #85, 15 mg/day, Day 43): 34.1 g/dL | MCV (sheep #85, 15 mg/day, Day 43): 36.8 fL | Na+ (sheep #85, 15 mg/day, Day 43): 148 mEq/l | Platlet Count (sheep #85, 15 mg/day, Day 43): 604000 µL⁻¹ | RBC (sheep #85, 15 mg/day, Day 43): 9.44e+06 µL⁻¹ | WBC (sheep #85, 15 mg/day, Day 43): 3130 µL⁻¹ | Total Bili (sheep #85, 15 mg/day, Day 43, ref 0.14-0.32): 0.1 mg/dL | Creatinine (sheep #85, 15 mg/day, Day 43, ref 1-2.7): 1.3 mg/dL | Albumin (sheep #85, 15 mg/day, Day 43, ref 2.4-3): 3.6 g/dL | K+ (sheep #85, 15 mg/day, Day 43, ref 3.9-5.4): 4.9 mEq/l | Phos (sheep #85, 15 mg/day, Day 43, ref 5-7.3): 7.1 mg/dL | Total Prot (sheep #85, 15 mg/day, Day 43, ref 6-7.9): 6.4 g/dL | ALT (sheep #91, 15 mg/day, Day 1): 7 U/L | AST (sheep #91, 15 mg/day, Day 1): 61 U/L | Alk Phos (sheep #91, 15 mg/day, Day 1): 132 U/L | BUN (sheep #91, 15 mg/day, Day 1): 9 mg/dL | CPK (sheep #91, 15 mg/day, Day 1): 52 U/L | Cholesterol (sheep #91, 15 mg/day, Day 1): 47 mg/dL | Differential Count: Eosin (sheep #91, 15 mg/day, Day 1): 1% | Differential Count: Lymph (sheep #91, 15 mg/day, Day 1): 21% | Differential Count: Mono (sheep #91, 15 mg/day, Day 1): 2% | Differential Count: Seg (sheep #91, 15 mg/day, Day 1): 76% | Gamma GT (sheep #91, 15 mg/day, Day 1): 51 U/L
